Read-outs that look alike come from different tables or passages of the source.
Tested on: mouse B16 melanoma cells
Assay: Melanin formation by mouse B16 melanoma cells cultured with test samples (melanin content, absorbance 450 nm)
Assay type: cell-based
Procedure: The effect of nucleic-acid-related compounds on melanin-formation inhibition was evaluated by using mouse B16 melanoma cells frequently used as an index for evaluating skin-whitening agents used in external dermatological agents. Since nucleic-acid-related compounds are roughly classified into purine and pyrimidine compounds, the following respective representative compounds were used as test samples. […] Thereafter, cells were collected after adding trypsin-EDTA to each well and subjecting the resultant to centrifugation. The collected cells were washed once with Dulbecco's PBS (-) (abbreviated as “D-PBS”, hereinafter) and centrifuged to remove the supernatant. To the remaining cell pellet was added 0.5 ml of 1N sodium hydroxide to solubilize the cells. The resulting alkali-solubilized solution was boiled for 30 min and determined for melanin content by the following method. […] Each of these wells was assayed for melanin content similarly as above. […] In this and the following experiments, it means that the lower the melanin formation percentage, the higher the melanin-formation inhibitory effect, i.e., the skin-whitening effect.

[1] = test sample 1 μM in liquid culture medium, 5 days, negative control = 100
[2] = test sample 5 μM in liquid culture medium, 5 days, negative control = 100
[3] = Experiment 1, test sample 10 μM
[4] = Mus musculus, B16, 120 h, molar ratio guanine:adenine or equol 0:1, total concentration 5 μM, read-out: Melanin formation percentage
[5] = Mus musculus, B16, 120 h, test sample 2.5 μM in liquid culture medium, 5 days, negative control = 100, read-out: Melanin formation percentage
[6] = Mus musculus, B16, 120 h, test sample 5 μM in liquid culture medium, 5 days, negative control = 100, read-out: Melanin formation percentage
[7] = Mus musculus, B16, 120 h, test sample 10 μM in liquid culture medium, 5 days, negative control = 100, read-out: Melanin formation percentage
[8] = Mus musculus, B16, 120 h, test sample 20 μM in liquid culture medium, 5 days, negative control = 100, read-out: Melanin formation percentage
[9] = Experiment 2, test sample 5 μM alone
[10] = Mus musculus, B16, 120 h, test sample 1 μM in liquid culture medium, 5 days, negative control = 100, read-out: Melanin formation percentage
[11] = test sample 10 μM in liquid culture medium, 5 days, negative control = 100
[12] = test sample 20 μM in liquid culture medium, 5 days, negative control = 100

OC[C@H]1O[C@H](Oc2ccc([C@H]3COc4cc(O)ccc4C3)cc2)[C@H](O)[C@@H](O)[C@@H]1O [4′-Glucosyl-S-equol, 4′-O-α-D-glycopyranosyl-S-equol]
Melanin formation percentage [1]: 85% | Melanin formation percentage [2]: 74%

OC[C@H]1O[C@H](Oc2ccc3c(c2)OC[C@H](c2ccc(O)cc2)C3)[C@H](O)[C@@H](O)[C@@H]1O [7-Glucosyl-S-equol, 7-O-α-D-glycopyranosyl-S-equol]
Melanin formation percentage [1]: 85% | Melanin formation percentage [2]: 75%

Nc1ncnc2nc[nH]c12 [Adenine]
Melanin-formation inhibition (in words) [3]: inhibited | activity at 5 µM [4]: 83% | activity at 2.5 µM [5]: 95% | activity at 5 µM [6]: 83% | activity at 10 µM [7]: 60% | activity at 20 µM [8]: 39%

Nc1ncnc2c1ncn2[C@@H]1O[C@H](COP(=O)(O)OP(=O)(O)O)[C@@H](O)[C@H]1O [Adenosine 5′-diphosphate, adenosine 5′-diphosphate]
activity at 5 µM [6]: 93% | activity at 10 µM [7]: 81% | activity at 20 µM [8]: 51%

Nc1ncnc2c1ncn2[C@@H]1O[C@H](COP(=O)(O)O)[C@@H](O)[C@H]1O [Adenosine 5′-monophosphate, adenosine 5′-monophosphate]
activity at 2.5 µM [5]: 97% | activity at 5 µM [6]: 100% | activity at 10 µM [7]: 82% | activity at 20 µM [8]: 60%

Nc1ncnc2c1ncn2[C@@H]1O[C@H](COP(=O)(O)OP(=O)(O)OP(=O)(O)O)[C@@H](O)[C@H]1O [Adenosine 5′-triphosphate, adenosine 5′-triphosphate]
activity at 5 µM [6]: 93% | activity at 10 µM [7]: 80% | activity at 20 µM [8]: 53%

Nc1ncnc2c1ncn2[C@@H]1O[C@H](CO)[C@@H](O)[C@H]1O [Adenosine, adenosine]
activity at 2.5 µM [5]: 98% | activity at 5 µM [6]: 94% | activity at 10 µM [7]: 71% | activity at 20 µM [8]: 48%

Nc1cc[nH]c(=O)n1 [Cytosine, reference compound]
Melanin-formation inhibition (in words) [3]: no melanin-formation inhibition was observed | Melanin-formation inhibition (in words) [9]: No melanin-formation inhibition was found | activity at 5 µM [6]: 98% | activity at 10 µM [7]: 100%

Oc1ccc([C@H]2COc3cc(O)ccc3C2)cc1 [Equol, equol]
activity at 5 µM [4]: 91% | activity at 1 µM [10]: 91% | activity at 5 µM [6]: 67% | Enhancement of the skin-whitening (melanin-formation-inhibitory) action in combination (in words) (skin-whitening ingredient together with guanine including derivatives or other nucleic-acid-related compound): enhanced

Nc1nc2nc[nH]c2c(=O)[nH]1 [Guanine]
Melanin-formation inhibition (in words) [3]: no melanin-formation inhibition was observed | Melanin-formation inhibition (in words) [9]: No melanin-formation inhibition was found | activity at 5 µM (Mus musculus, B16, 120 h, read-out: Melanin formation percentage, molar ratio guanine:adenine or equol 1:0, total concentration 5 μM): 98% | activity at 1 µM (Mus musculus, B16, 120 h, read-out: Melanin formation percentage, test sample 1 μM in liquid culture medium, 5 days, negative control = 100): 100% | activity at 2.5 µM (Mus musculus, B16, 120 h, read-out: Melanin formation percentage, test sample 2.5 μM in liquid culture medium, 5 days, negative control = 100): 99% | activity at 5 µM (Mus musculus, B16, 120 h, read-out: Melanin formation percentage, test sample 5 μM in liquid culture medium, 5 days, negative control = 100): 98% | activity at 10 µM (Mus musculus, B16, 120 h, read-out: Melanin formation percentage, test sample 10 μM in liquid culture medium, 5 days, negative control = 100): 98% | activity at 20 µM (Mus musculus, B16, 120 h, read-out: Melanin formation percentage, test sample 20 μM in liquid culture medium, 5 days, negative control = 100): 101%

Nc1nc2c(ncn2[C@@H]2O[C@H](COP(=O)(O)OP(=O)(O)O)[C@@H](O)[C@H]2O)c(=O)[nH]1 [Guanosine 5′-diphosphate, guanosine 5′-diphosphate]
activity at 5 µM [6]: 93% | activity at 10 µM [7]: 100% | activity at 20 µM [8]: 95%

Nc1nc2c(ncn2[C@@H]2O[C@H](COP(=O)(O)O)[C@@H](O)[C@H]2O)c(=O)[nH]1 [Guanosine 5′-monophosphate, guanosine 5′-monophosphate]
activity at 1 µM [10]: 99% | activity at 2.5 µM [5]: 99% | activity at 5 µM [6]: 100% | activity at 10 µM [7]: 101% | activity at 20 µM [8]: 101%

Nc1nc2c(ncn2[C@@H]2O[C@H](COP(=O)(O)OP(=O)(O)OP(=O)(O)O)[C@@H](O)[C@H]2O)c(=O)[nH]1 [Guanosine 5′-triphosphate, guanosine 5′-triuphosphate]
Melanin formation percentage [2]: 95% | Melanin formation percentage [11]: 98% | Melanin formation percentage [12]: 97%

Nc1nc2c(ncn2[C@@H]2O[C@H](CO)[C@@H](O)[C@H]2O)c(=O)[nH]1 [Guanosine, guanosine]
activity at 1 µM [10]: 99% | activity at 2.5 µM [5]: 98% | activity at 5 µM [6]: 98% | activity at 10 µM [7]: 102% | activity at 20 µM [8]: 97%

O=c1[nH]cnc2nc[nH]c12 [Hypoxanthine, reference compound]
Melanin-formation inhibition (in words) [3]: no melanin-formation inhibition was observed | Melanin-formation inhibition (in words) [9]: No melanin-formation inhibition was found | activity at 5 µM [6]: 97% | activity at 10 µM [7]: 97%

OC[C@H]1O[C@@H](n2cnc3c(O)ncnc32)[C@H](O)[C@@H]1O [Inosine, reference compound]
Melanin-formation inhibition (in words) [3]: no melanin-formation inhibition was observed | Melanin-formation inhibition (in words) [9]: No melanin-formation inhibition was found | activity at 5 µM [6]: 98% | activity at 10 µM [7]: 96%

O=c1cc(CO)occ1O [Kojic acid, reference compound]
activity at 500 µM (Mus musculus, B16, 120 h, test sample 500 μM in liquid culture medium, 5 days, negative control = 100, read-out: Melanin formation percentage): 71% | activity at 1000 µM (Mus musculus, B16, 120 h, test sample 1000 μM in liquid culture medium, 5 days, negative control = 100, read-out: Melanin formation percentage): 49% | activity at 2000 µM (Mus musculus, B16, 120 h, test sample 2000 μM in liquid culture medium, 5 days, negative control = 100, read-out: Melanin formation percentage): 30% | Melanin-formation-inhibitory action of the test sample alone (in words) (at the concentrations used in the experiment): inhibited the melanin formation by mouse B16 melanoma cells in a concentration dependent manner

Oc1ccc([C@@H]2COc3cc(O)ccc3C2)cc1 [R-Equol, R-equol]
Melanin formation percentage [1]: 94% | Melanin formation percentage [2]: 77%

Oc1ccc([C@H]2COc3cc(O)ccc3C2)cc1 [S-Equol, S-equol]
Melanin formation percentage [1]: 86% | Melanin formation percentage [2]: 60%

Cc1c[nH]c(=O)[nH]c1=O [Thymine, reference compound]
Melanin-formation inhibition (in words) [3]: no melanin-formation inhibition was observed | Melanin-formation inhibition (in words) [9]: No melanin-formation inhibition was found | activity at 5 µM [6]: 99% | activity at 10 µM [7]: 97%

O=c1cc[nH]c(=O)[nH]1 [Uracil, reference compound]
Melanin-formation inhibition (in words) [3]: no melanin-formation inhibition was observed | Melanin-formation inhibition (in words) [9]: No melanin-formation inhibition was found | activity at 5 µM [6]: 98% | activity at 10 µM [7]: 99%

O=c1[nH]c(=O)c2[nH]cnc2[nH]1 [Xanthine, reference compound]
Melanin-formation inhibition (in words) [3]: no melanin-formation inhibition was observed | Melanin-formation inhibition (in words) [9]: No melanin-formation inhibition was found | activity at 5 µM [6]: 100% | activity at 10 µM [7]: 100%

glucosyladenosine
Melanin formation percentage [2]: 89% | Melanin formation percentage [11]: 63% | Melanin formation percentage [12]: 43%

glucosylguanosine
Melanin formation percentage [1]: 99% | Melanin formation percentage (test sample 2.5 μM in liquid culture medium, 5 days, negative control = 100): 98% | Melanin formation percentage [2]: 98% | Melanin formation percentage [11]: 99% | Melanin formation percentage [12]: 99%

— patent US20140205553A1, “AGENT FOR ENHANCING THE EFFECT OF SKIN-WHITENING INGREDIENTS AND USES THEREOF” (Hayashibara Co., Ltd., priority 2010, published 2014)
